# Counter-ions that a name gives are not always drawn.
# Columns and labels:
# [1] = Half-life when incubated with mouse liver microsomes (MLM); type: in vitro ADME; conditions: half-life when incubated with mouse liver microsomes; read-out: MLM T½
# Method: (§1) ^a Inhibition of GlcCer production in whole wild-type MDCKII cells. ^bHalf-life when incubated with mouse liver microsomes. ^cAreas under the drug concentration curve after single IP dose in mice (10 mg/kg). ^dReduction in brain levels of glucosylceramide in CBE mice after 14 days of qd dosing with test drug administered IP. NC=no change.
# [2] = IP PK: areas under the drug concentration curve after single IP dose in mice; type: in vivo; conditions: for IP PK Brain AUC / AUC: mice, single IP dose 10 mg/kg; for AUC: mouse, plasma
# [3] = system: brain glucosylceramide (GCS inhibition); assay: Reduction of brain glucosylceramide in CBE mice; type: in vivo; conditions: qd, 14 days
# Method: Reduction of Brain Glucosylceramide and Glucosylsphingosine in CBE Mice
# The reduction by inhibitors of GCS in brain glucosylceramide and glucosylsphingosine content was determined by the use of mice with Gba 1 mutant alleles, termed D409V/null. These are knock-in mice with a Gba 1 point mutation encoding Valine (V) 409 for the wild type (WT) Aspartate (D) on one missense allele and a null heteroallele [D409V/null (9V/null)]. The D409V/null and WT littermates were of mixed gender and mixed, but matched, genetic backgrounds of C57BL/129Sv/FVB. (Xu Y H, Sun Y, Barnes S, Grabowski G A (2010) Comparative therapeutic effects of velaglucerase alfa and imiglucerase in a Gaucher disease mouse model. PLoS One 5: e10750.) Mice were treated with intraperitoneal conduritol B epoxide (CBE), an irreversible inhibitor of beta-glucocerebrosidase (25 mg/kg/day) for all groups beginning at post-partum day 15. Mice were concurrently treated with GCS inhibitor or vehicle control for 14 days. The mice were sacrificed 2 hours following the last injection and tissues including brain, liver, spleen, kidney and lung were analyzed for glucosylceramide and glucosylsphingosine by mass spectrometry.
# (§2) Mouse Tissue Lipid Analysis
# (§3) Lipid extractions of liver, kidney, and brain were performed as previously described (7). Briefly, frozen liver (about 0.5 g), two kidneys (about 0.3 g) and whole brain (about 0.4 g) were individually homogenized in sucrose buffer (250 mM sucrose, pH 7.4, 10 mM HEPES and 1 mM EDTA), at 0.2 g tissue/1 mL of sucrose buffer, with a Tri-R homogenizer. Each 0.8 mL of homogenate was mixed with 2 mL of methanol and 1 mL of chloroform, bath sonicated for 1 min and incubated at room temperature for 1 h. Tissue debris were removed by centrifugation at 2,400× gravity for 30 min. The pellets were re-extracted by mixing with 1 mL of methanol, 0.5 mL of chloroform and 0.4 mL of 0.9% NaCl (chloroform/methanol/0.9% NaCl, 1:2:0.8), incubated at room temperature for 1 h and centrifuged at 2,400× gravity for another 30 min. Two extracts were combined and mixed with 4.5 mL of chloroform and 1.2 mL of 0.9% NaCl (chloroform/methanol/0.9% NaCl, 2:1:0.8). After centrifugation at 800× gravity for 5 min, lower layer was washed with 3 mL of methanol and 2.4 mL of 0.9% NaCl. Second washing was carried with 3 mL of methanol, 2 mL of water and 0.4 mL of 0.9% NaCl followed by a 5 min centrifugation at 800× gravity. The resultant lower phase was collected and dried under a stream of N2 gas.
# The analysis of neutral glycosphingolipids from mouse liver, kidney, and brain was processed after alkaline methanolysis. […] lipids were incubated with 2 mL of chloroform and 1 ml of 0.21N NaOH in methanol for 2 h (kidney) or 7.5 h (liver and brain) at RT. The lipid extract was normalized to 0.5 μmol of total phospholipid phosphate (liver and kidney) or 2 μmol of total phospholipid phosphate (brain) for high performance thin layer chromatography analysis. After alkaline methanolysis, the brain lipids were passed through a silica gel column (7). Borate-impregnated thin layer chromatography plates were developed in a two solvent system. Plates were first developed in chloroform/methanol (98:2, v/v). The plates loaded with kidney and liver lipids were then developed in chloroform/methanol/water (64:24:4, v/v/v), and brain lipids were further separated in chloroform/methanol/water (60:30:6, v/v/v). GlcCer levels were quantified by comparison to known standards.
# as §1
# [4] = molecular target: T1, glucosylceramide synthase (GCS) (Canis lupus familiaris, UniProt A0A8I3MXG6); assay: GCS inhibition in MDCKII cells (inhibition of GlcCer production in whole wild-type MDCKII cells); type: cell-based; conditions: inhibition of GlcCer production in whole wild-type MDCKII cells, 24 hours; read-out: MDCK IC50
# T1 construct: endogenous in cells; host or cells: parental (wild-type) MDCKII cells
# T1 sequence (A0A8I3MXG6 1-394): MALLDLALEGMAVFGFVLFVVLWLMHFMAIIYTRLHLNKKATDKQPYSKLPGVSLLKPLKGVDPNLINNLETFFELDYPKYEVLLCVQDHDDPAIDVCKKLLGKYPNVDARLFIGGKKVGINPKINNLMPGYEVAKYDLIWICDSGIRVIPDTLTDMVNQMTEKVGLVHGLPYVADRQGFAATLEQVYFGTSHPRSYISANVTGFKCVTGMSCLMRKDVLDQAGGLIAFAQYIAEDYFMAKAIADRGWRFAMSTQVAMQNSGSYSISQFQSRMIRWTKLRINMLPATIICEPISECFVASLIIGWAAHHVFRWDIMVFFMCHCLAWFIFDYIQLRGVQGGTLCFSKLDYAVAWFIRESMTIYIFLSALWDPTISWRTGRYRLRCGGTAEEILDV
# Method: GCS Inhibition in MDCKII Cells
# Parental (WT-)MDCKII cells were routinely maintained in medium consisting of Opti-MEM/F12 (1:1), 5% FBS, 100 U/mL of penicillin, 100 μg/mL streptomycin and 200 mM L-glutamine. MDCKII cells were newly thawed from frozen ampules every two months.
# The inhibitor-ethanol solutions then were diluted 50× into 2 mM delipidated bovine serum albumin-phosphate buffered saline solution to make water-soluble glycosphingolipid inhibitor-bovine serum albumin complexes. The inhibitor-bovine serum album complexes were sterile-filtered and stored at −20° C. Prior to use, portions of the inhibitor-bovine serum albumin complexes were further diluted with Opti-F12 to make treatment solutions. Equal amounts of bovine serum albumin and ethanol were added into the control cultures. Cells (5×10^5) were seeded into 10-cm culture dishes containing 10 ml of Opti-F12 with 5% FBS. After 24 hours, the medium was replaced with fresh serum-free Opti-F12 medium, and cells were exposed to candidate GCS inhibitors at concentrations of 0, 1, 3, 10, 30, 100 and 300 nM for 24 hours.
# Briefly, cells were washed with ice-cold phosphate buffered saline, fixed by methanol, and collected with rubber scraper. Chloroform was then added to yield a theoretical ratio of chloroform:methanol:water at 1:2:0.8 (v/v/v) to form a mono-phase. Cell debris and proteins were removed by centrifugation at 2200×g for 30 min. The supernatants were portioned by adding chloroform and 0.9% NaCl. […] A portion of purified glycosphingolipids normalized to 100 nmol of total phospholipids was analyzed by high performance thin layer chromatography. The thin layer chromatography separations were processed twice. The plate pretreated with 1% sodium borate was first developed in a solvent system consisting of chloroform/methanol (98/2, v/v). After air drying, the plate was then developed in a solvent system containing chloroform/methanol/water (70/30/4, v/v/v). The levels of glucosylceramide were detected by charring with 8% cupric sulfate in 8% phosphoric acid, and quantified by densitometric scanning using ImageJ, NIH Image.
# [5] = system: brain glucosylceramide content; assay: Brain glucosylceramide content after intraperitoneal administration to mice for 3 days; type: in vivo; conditions: intraperitoneal administration for 3 days
# Method: The compounds were screened for inhibition of GCS in broken cell and whole cell assays, and for MDR1 substrate recognition.
# as §2
# as §3, with “Second washing was carried with 3 mL of methanol, 2 mL of water and 0.4 mL of 0.9% NaCl followed by a 5 min centrifugation at 800× gravity. The resultant lower phase was collected and dried under a stream of N2 gas.” left out
# The analysis of neutral glycosphingolipids from mouse liver, kidney, and brain was processed after alkaline methanolysis. […] GlcCer levels were quantified by comparison to known standards.
SMILES,half-life [1] [min],drug exposure in the brain versus compound lacking the 3-chloro substituent [2],IP PK Brain AUC [2] [ng·h/mL],AUC [2] [ng·h/mL],Reduction in brain GlcCer in CBE mice ([3]; 100 μmol/kg/day IP) [%],IC50 [4] [nM],Reduction in brain GlcCer in CBE mice ([3]; 36 μmol/kg/day IP) [%],decrease in brain glucosylceramide content [5],Reduction in brain GlcCer in CBE mice ([3]; 26 μmol/kg/day IP) [%]
"CC1(Oc2ccc([C@@H](O)[C@@H](CN3CCCC3)NC(=O)CC3Cc4ccccc4C3)cc2Cl)COC1 [Example 5, N-((1R,2R)-1-(3-chloro-4-((3-methyloxetan-3-yl)oxy)phenyl)-1-hydroxy-3-(pyrrolidin-1-yl)propan-2-yl)-2-(2,3-dihydro-1H-inden-2-yl)acetamide]",40,improved,366,849,64,0.74,–,–,–
"O=C(CC1Cc2ccccc2C1)N[C@H](CN1CCCC1)[C@H](O)c1cccc(Cl)c1 [Example 1, N-((1R,2R)-1-(3-chlorophenyl)-1-hydroxy-3-(pyrrolidin-1-yl)propan-2-yl)-2-(2,3-dihydro-1H-inden-2-yl)acetamide]",18,–,1109,1540,–,1,23,–,–
"CCCCCCCC(=O)N[C@H](CN1CCCC1)[C@H](O)c1ccc2c(c1)OCCO2 [eliglustat tartrate, N-((1R,2R)-1-(2,3-dihydrobenzo-[b][1,4]dioxin-6-yl)-1-hydroxy-3-(pyrrolidin-1-yl)propan-2-yl)octanamide]",–,–,–,–,–,–,–,not seen,–
"O=C(CC1Cc2ccccc2C1)N[C@H](CN1CCCC1)[C@H](O)c1ccc(OC2CC2)c(Cl)c1 [Example 4, N-((1R,2R)-1-(3-chloro-4-cyclopropoxyphenyl)-1-hydroxy-3-(pyrrolidin-1-yl)propan-2-yl)-2-(2,3-dihydro-1H-inden-2-yl)acetamide]",24,–,293,1020,–,0.14,–,–,33
"CC(C)(C)Oc1ccc([C@@H](O)[C@@H](CN2CCCC2)NC(=O)CC2Cc3ccccc3C2)cc1Cl [Example 2, N-((1R,2R)-1-(4-(tert-butoxy)-3-chlorophenyl)-1-hydroxy-3-(pyrrolidin-1-yl)propan-2-yl)-2-(2,3-dihydro-1H-inden-2-yl)acetamide]",170,–,1316,1990,–,0.081,–,–,21
"O=C(CC1Cc2ccccc2C1)N[C@H](CN1CC[C@@H](F)C1)[C@H](O)c1ccc(OC2CC2)c(Cl)c1 [Example 11, N-((1R,2R)-1-(3-chloro-4-cyclopropoxyphenyl)-3-((R)-3-fluoropyrrolidin-1-yl)-1-hydroxypropan-2-yl)-2-(2,3-dihydro-1H-inden-2-yl)acetamide]",5.5,–,178,397,–,0.63,–,–,–
"O=C(CC1Cc2ccc(F)cc2C1)N[C@H](CN1CCCC1)[C@H](O)c1cccc(Cl)c1 (stereo partly drawn) [Example 9, N-((1R,2R)-1-(3-chlorophenyl)-1-hydroxy-3-(pyrrolidin-1-yl)propan-2-yl)-2-(5-fluoro-2,3-dihydro-1H-inden-2-yl)acetamide]",50,–,869,2180,–,0.8,–,–,43
"O=C(N[C@H](CN1CCCC1)[C@H](O)c1ccc(OC2CC2)c(Cl)c1)OC1Cc2ccccc2C1 [Example 12, 2,3-dihydro-1H-inden-2-yl ((1R,2R)-1-(3-chloro-4-cyclopropoxyphenyl)-1-hydroxy-3-(pyrrolidin-1-yl)propan-2-yl)carbamate]",29,–,210,370,–,0.32,–,–,32
"CC1(C)COc2cc([C@@H](O)[C@@H](CN3CCCC3)NC(=O)CC3Cc4ccccc4C3)cc(Cl)c2O1 [Example 7, N-((1R,2R)-1-(8-chloro-2,2-dimethyl-2,3-dihydrobenzo[b][1,4]dioxin-6-yl)-1-hydroxy-3-(pyrrolidin-1-yl)propan-2-yl)-2-(2,3-dihydro-1H-inden-2-yl)acetamide]",44,improved,129,590,–,0.061,–,–,49

# From patent publication US11220479B2, “Glucosylceramide synthase inhibitors and therapeutic methods using the same” (THE REGENTS OF THE UNIVERSITY OF MICHIGAN, priority 2019, dated 2022)
